Source: patent US20250101038A1, “COMPOUNDS” (priority 2021, published 2025)
Where two headings read alike, the source gives them in different places.

Key:
[1] = biological target: T1, 5-HT2B receptor (Homo sapiens, UniProt P41595); experiment: cell-based
T1 construct: host or cells: CHO-K1

[2] = biological target: T2, 5-HT2A receptor (Homo sapiens, UniProt P28223); experiment: FLIPR Ca2+ flux functional assay, 5-HT2A; type: cell-based
T2 construct: host or cells: HEK293
Protocol: Activity at 5-HT2A, 5-HT2B and 5-HT2C receptors was determined using a FLIPR Ca^2+ flux assay at WuXi AppTec Co. Ltd. (Hong Kong) Discovery Biology Unit according to their standard protocols. Briefly, stably transfected cells expressing the receptor of interest (HEK293 for 5-HT2A and 5-HT2C; CHO-K1 for 5-HT2B) were grown and plated in a 384 well plate and incubated at 37° C. and 5% CO2 overnight. A 250 mM stock solution of probenecid in FLIPR calcium assay buffer (10 mL) was freshly prepared and combined with a fluorescent dye (Fluo-4 Direct) to give a final assay concentration of 2.5 mM. Reference compounds were 4-fold serially diluted and the screening compounds were 3-fold serially diluted in 100% DMSO for 10 points using Agilent Bravo, and 750 nL was added to a 384 well compound plate using Echo along with 30 μL assay buffer. The fluorescent dye was then added to the assay plate along with assay buffer to a final volume of […]. The cell plate was incubated for 50 min at 37° C. and 5% CO2 and placed into the FLIPR Tetra along with the compound plate. 10 μL of references and compounds were then transferred from the compound plate into the cell plate and the fluorescent signal was read.

[3] = biological target: T3, 5-HT2C receptor (Homo sapiens, UniProt P28335); experiment: cell-based
T3 construct: host or cells: HEK293
T3 sequence (P28335 33-458): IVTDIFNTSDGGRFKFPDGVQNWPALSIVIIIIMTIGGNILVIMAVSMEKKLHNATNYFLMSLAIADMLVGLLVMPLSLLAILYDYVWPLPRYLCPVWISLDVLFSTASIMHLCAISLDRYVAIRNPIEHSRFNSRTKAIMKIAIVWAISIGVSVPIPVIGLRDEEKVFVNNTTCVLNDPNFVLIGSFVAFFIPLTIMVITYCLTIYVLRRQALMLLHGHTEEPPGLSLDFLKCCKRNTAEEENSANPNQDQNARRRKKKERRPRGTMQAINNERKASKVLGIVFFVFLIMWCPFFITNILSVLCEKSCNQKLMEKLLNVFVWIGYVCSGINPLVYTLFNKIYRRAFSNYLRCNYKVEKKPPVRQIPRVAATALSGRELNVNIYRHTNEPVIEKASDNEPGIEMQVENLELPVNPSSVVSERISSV

[4] = agonist activity, Ca2+ flux, CHO-K1 cells
[5] = agonist activity, Ca2+ flux, CHO-K1 cells, read-out: 5-HT2B EC50
[6] = agonist activity, Ca2+ flux, HEK293 cells
[7] = agonist activity, Ca2+ flux, HEK293 cells, read-out: 5-HT2A EC50
[8] = agonist activity, Ca2+ flux, HEK293 cells, read-out: 5-HT2C EC50

T1 sequence (P41595 whole entry): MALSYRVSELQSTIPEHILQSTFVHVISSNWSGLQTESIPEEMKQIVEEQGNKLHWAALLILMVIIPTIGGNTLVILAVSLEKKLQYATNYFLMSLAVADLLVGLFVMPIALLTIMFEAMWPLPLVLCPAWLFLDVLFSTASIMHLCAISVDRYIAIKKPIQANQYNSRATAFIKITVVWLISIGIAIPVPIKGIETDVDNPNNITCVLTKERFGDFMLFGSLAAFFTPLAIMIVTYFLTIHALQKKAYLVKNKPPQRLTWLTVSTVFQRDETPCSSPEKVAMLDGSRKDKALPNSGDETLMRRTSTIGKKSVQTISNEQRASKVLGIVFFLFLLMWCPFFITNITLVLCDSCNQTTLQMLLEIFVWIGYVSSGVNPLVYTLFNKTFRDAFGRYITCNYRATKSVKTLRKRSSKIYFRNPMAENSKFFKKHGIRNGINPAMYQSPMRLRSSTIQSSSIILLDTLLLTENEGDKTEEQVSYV
T2 sequence (P28223 whole entry): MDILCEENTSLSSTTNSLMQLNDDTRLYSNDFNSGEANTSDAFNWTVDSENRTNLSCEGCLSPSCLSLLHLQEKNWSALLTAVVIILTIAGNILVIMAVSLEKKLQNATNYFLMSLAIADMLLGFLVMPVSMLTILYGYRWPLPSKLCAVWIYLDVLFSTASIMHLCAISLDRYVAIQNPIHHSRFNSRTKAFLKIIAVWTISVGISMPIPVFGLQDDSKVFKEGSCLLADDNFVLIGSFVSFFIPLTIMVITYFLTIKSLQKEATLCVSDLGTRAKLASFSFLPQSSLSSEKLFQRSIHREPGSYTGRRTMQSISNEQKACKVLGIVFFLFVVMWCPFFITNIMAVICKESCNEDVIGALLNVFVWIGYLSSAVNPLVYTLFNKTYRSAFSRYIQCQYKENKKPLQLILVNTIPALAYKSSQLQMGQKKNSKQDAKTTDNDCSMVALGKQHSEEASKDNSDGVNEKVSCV

SMILES: CN(C)CCc1c[nH]c2cc3c(cc12)OCC3 [Example P-1, 2-(3,5-dihydro-2H-furo[2,3-f]indol-7-yl)-N,N-dimethylethan-1-amine]
- Emax [1, 4]: 2.92%
- EC50 [1, 5]: > 10000 nM
- Emax [2, 6]: 63.9%
- EC50 [2, 7]: 139 nM
- Emax [3, 6]: 82.3%
- EC50 [3, 8]: 134 nM

SMILES: CN(C)CCc1c[nH]c2cc3ccoc3cc12 [Example P-2, 2-(5H-Furo[2,3-f]indol-7-yl)-N,N-dimethylethan-1-amine]
- Emax [1, 4]: -1.07%
- EC50 [1, 5]: > 10000 nM
- Emax [2, 6]: 46.5%
- EC50 [2, 7]: 207 nM
- Emax [3, 6]: 80.6%
- EC50 [3, 8]: 56.8 nM

SMILES: CN(C)CCc1c[nH]c2ccc3c(c12)OCC3 [Example P-3, 2-(3,6-dihydro-2H-furo[2,3-e]indol-8-yl)-N,N-dimethylethan-1-amine]
- Emax [1, 4]: 13.8%
- EC50 [1, 5]: > 10000 nM
- Emax [2, 6]: 81%
- EC50 [2, 7]: 9.73 nM
- Emax [3, 6]: 76.4%
- EC50 [3, 8]: 16.2 nM

SMILES: CN(C)CCc1c[nH]c2cc3occc3cc12 [Example P-4, 2-(7H-furo[3,2-f]indol-5-yl)-N,N-dimethylethan-1-amine]
- EC50 [1]: > 10000 nM
- Emax [1, 4]: 4.68%
- EC50 [2]: 9.39 nM
- Emax [2, 6]: 70.4%
- EC50 [3]: 6.11 nM
- Emax [3, 6]: 78.9%

SMILES: COc1ccc2[nH]cc(CCN(C)C)c2c1C [Example P-6, 2-(5-methoxy-4-methyl-1H-indol-3-yl)-N,N-dimethylethan-1-amine]
- Emax [1, 4]: 11.3%
- EC50 [1, 5]: > 10000 nM
- Emax [2, 6]: 64.1%
- EC50 [2, 7]: 124 nM
- Emax [3, 6]: 73.6%
- EC50 [3, 8]: 303 nM

SMILES: COc1cc2c(CCN(C)C)c[nH]c2cc1C [Example P-7, 2-(5-methoxy-6-methyl-1H-indol-3-yl)-N,N-dimethylethan-1-amine]
- Emax [1, 4]: 1.71%
- EC50 [1, 5]: > 10000 nM
- Emax [2, 6]: 81.9%
- EC50 [2, 7]: 15.8 nM
- Emax [3, 6]: 81.1%
- EC50 [3, 8]: 110 nM

SMILES: COc1c(C)ccc2[nH]cc(CCN(C)C)c12 [Example P-9, 2-(4-methoxy-5-methyl-1H-indol-3-yl)-N,N-dimethylethan-1-amine]
- Emax [1, 4]: 17.3%
- EC50 [1, 5]: > 10000 nM
- Emax [2, 6]: 65%
- EC50 [2, 7]: 24.6 nM
- Emax [3, 6]: 80.7%
- EC50 [3, 8]: 6.23 nM

SMILES: Cc1ccc2[nH]cc(CCN(C)C)c2c1O [Example P-10, 3-(2-(dimethylamino)ethyl)-5-methyl-1H-indol-4-ol]
- Emax [1, 4]: -0.21%
- EC50 [1, 5]: > 10000 nM
- Emax [2, 6]: 63.1%
- EC50 [2, 7]: 55.1 nM
- Emax [3, 6]: 71.2%
- EC50 [3, 8]: 72.8 nM

SMILES: Cc1cc(O)c2c(CCN(C)C)c[nH]c2c1 [Example P-12, 3-(2-(dimethylamino)ethyl)-6-methyl-1H-indol-4-ol]
- Emax [1, 4]: 1.23%
- EC50 [1, 5]: > 10000 nM
- Emax [2, 6]: 67.8%
- EC50 [2, 7]: 80.4 nM
- Emax [3, 6]: 69.3%
- EC50 [3, 8]: 144 nM

SMILES: COc1ccc(C)c2[nH]cc(CCN(C)C)c12 [Example P-13, 2-(4-methoxy-7-methyl-1H-indol-3-yl)-N,N-dimethylethan-1-amine]
- Emax [1, 4]: 0.67%
- EC50 [1, 5]: > 10000 nM
- Emax [2, 6]: 36.1%
- EC50 [2, 7]: 107 nM
- Emax [3, 6]: 69.5%
- EC50 [3, 8]: 56 nM

SMILES: COc1cc(F)cc2[nH]cc(CCN(C)C)c12 [Example P-14, 2-(6-fluoro-4-methoxy-1H-indol-3-yl)-N,N-dimethylethan-1-amine]
- Emax [1, 4]: 0.17%
- EC50 [1, 5]: > 10000 nM
- Emax [2, 6]: 87.2%
- EC50 [2, 7]: 12.9 nM
- Emax [3, 6]: 75.7%
- EC50 [3, 8]: 2.6 nM

SMILES: COc1ccc2[nH]cc(CCN(C)C(C)C)c2c1C [Example P-38, N-(2-(5-methoxy-4-methyl-1H-indol-3-yl)ethyl)-N-methylpropan-2-amine]
- Emax [1, 4]: 45.4%
- EC50 [1, 5]: 659 nM
- Emax [2, 6]: 83.3%
- EC50 [2, 7]: 189 nM
- Emax [3, 6]: 23.7%
- EC50 [3, 8]: > 10000 nM

SMILES: CCN(CCc1c[nH]c2ccc(OC)c(C)c12)C(C)C [Example P-40, N-ethyl-N-(2-(5-methoxy-4-methyl-1H-indol-3-yl)ethyl)propan-2-amine]
- Emax [1, 4]: 33.8%
- EC50 [1, 5]: > 10000 nM
- Emax [2, 6]: 78.4%
- EC50 [2, 7]: 894 nM
- Emax [3, 6]: 0.71%
- EC50 [3, 8]: > 10000 nM

SMILES: COc1cc2c(CCN(C)C(C)C)c[nH]c2cc1C [Example P-44, N-(2-(5-methoxy-6-methyl-1H-indol-3-yl)ethyl)-N-methylpropan-2-amine]
- Emax [1, 4]: 7.11%
- Emax [2, 6]: 72.6%
- Emax [3, 6]: 70.8%

SMILES: CCN(CC)CCc1c[nH]c2cc(C)c(OC)cc12 [Example P-45, N,N-diethyl-2-(5-methoxy-6-methyl-1H-indol-3-yl)ethan-1-amine]
- 5-HT2B Emax [1, 4]: 23.83%
- EC50 [1, 5]: 846 nM
- 5-HT2A Emax [2, 6]: 81.54%
- EC50 [2, 7]: 78.2 nM
- 5-HT2C Emax [3, 6]: 84.59%
- EC50 [3, 8]: 700 nM

SMILES: CCCN(CC)CCc1c[nH]c2cc(C)c(OC)cc12 [Example P-46, N-ethyl-N-(2-(5-methoxy-6-methyl-1H-indol-3-yl)ethyl)propan-1-amine]
- 5-HT2B Emax [1, 4]: 37.67%
- EC50 [1, 5]: 524 nM
- 5-HT2A Emax [2, 6]: 86.81%
- EC50 [2, 7]: 33.3 nM
- 5-HT2C Emax [3, 6]: 82.79%
- EC50 [3, 8]: 778 nM

SMILES: CCN(CCc1c[nH]c2cc(C)c(OC)cc12)C(C)C [Example P-47, N-ethyl-N-(2-(5-methoxy-6-methyl-1H-indol-3-yl)ethyl)propan-2-amine]
- Emax [1, 4]: 43.2%
- Emax [2, 6]: 64.7%
- Emax [3, 6]: 80.8%

SMILES: CCCN(CCC)CCc1c[nH]c2cc(C)c(OC)cc12 [Example P-48, N,N-dipropyl-2-(5-methoxy-6-methyl-1H-indol-3-yl)ethan-1-amine]
- Emax [1, 4]: 56.8%
- Emax [2, 6]: 77.5%
- Emax [3, 6]: 74%

SMILES: COc1cc2c(CCN(C(C)C)C(C)C)c[nH]c2cc1C [Example P-49, N-isopropyl-N-(2-(5-methoxy-6-methyl-1H-indol-3-yl)ethyl)propan-2-amine]
- Emax [1, 4]: 74.8%
- Emax [2, 6]: 83.5%
- Emax [3, 6]: 87%

SMILES: COc1cc(C)c2[nH]cc(CCN(C)C)c2c1 [Example P-50, 2-(5-methoxy-7-methyl-1H-indol-3-yl)-N,N-dimethylethan-1-amine]
- Emax [1, 4]: 0.5%
- EC50 [1, 5]: > 10000 nM
- Emax [2, 6]: 66.2%
- EC50 [2, 7]: 64 nM
- Emax [3, 6]: 56.4%
- EC50 [3, 8]: 538 nM

SMILES: CCCN(C)CCc1c[nH]c2c(C)cc(OC)cc12 [Example P-52, N-(2-(5-methoxy-7-methyl-1H-indol-3-yl)ethyl)-N-methylpropan-1-amine]
- Emax [1, 4]: 1.37%
- EC50 [1, 5]: > 10000 nM
- Emax [2, 6]: 58%
- EC50 [2, 7]: 161 nM
- Emax [3, 6]: 44.5%
- EC50 [3, 8]: 529 nM

SMILES: CCN(CC)CCc1c[nH]c2c(C)cc(OC)cc12 [Example P-54, N, N-diethyl-2-(5-methoxy-7-methyl-1H-indol-3-yl)ethan-1-amine]
- Emax [1, 4]: 7.69%
- EC50 [1, 5]: > 10000 nM
- Emax [2, 6]: 82.8%
- EC50 [2, 7]: 249 nM
- Emax [3, 6]: 58%
- EC50 [3, 8]: 1750 nM

SMILES: CCCN(CC)CCc1c[nH]c2c(C)cc(OC)cc12 [Example P-55, N-ethyl-N-(2-(5-methoxy-7-methyl-1H-indol-3-yl)ethyl)propan-1-amine]
- Emax [1, 4]: 13.2%
- EC50 [1, 5]: > 10000 nM
- Emax [2, 6]: 81.8%
- EC50 [2, 7]: 134 nM
- Emax [3, 6]: 57.9%
- EC50 [3, 8]: 1810 nM

SMILES: CCCN(CCC)CCc1c[nH]c2c(C)cc(OC)cc12 [Example P-57, N, N-dipropyl-2-(5-methoxy-7-methyl-1H-indol-3-yl)ethan-1-amine]
- Emax [1, 4]: 9.45%
- EC50 [1, 5]: > 10000 nM
- Emax [2, 6]: 79.2%
- EC50 [2, 7]: 140 nM
- Emax [3, 6]: 30.7%
- EC50 [3, 8]: 2860 nM
